The values that follow come from patent publication US12692262B2, “Substituted ureas as orexin receptor agonists” (Merck Sharp & Dohme LLC, priority 2020, dated 2026).

The target in the assay is T1, human OX2R (Homo sapiens, UniProt O43614).
T1 construct: expressed in transfected cells; host or cells: CHO (Chinese hamster ovary) cells grown under G418 selection
T1 sequence (O43614 1-444): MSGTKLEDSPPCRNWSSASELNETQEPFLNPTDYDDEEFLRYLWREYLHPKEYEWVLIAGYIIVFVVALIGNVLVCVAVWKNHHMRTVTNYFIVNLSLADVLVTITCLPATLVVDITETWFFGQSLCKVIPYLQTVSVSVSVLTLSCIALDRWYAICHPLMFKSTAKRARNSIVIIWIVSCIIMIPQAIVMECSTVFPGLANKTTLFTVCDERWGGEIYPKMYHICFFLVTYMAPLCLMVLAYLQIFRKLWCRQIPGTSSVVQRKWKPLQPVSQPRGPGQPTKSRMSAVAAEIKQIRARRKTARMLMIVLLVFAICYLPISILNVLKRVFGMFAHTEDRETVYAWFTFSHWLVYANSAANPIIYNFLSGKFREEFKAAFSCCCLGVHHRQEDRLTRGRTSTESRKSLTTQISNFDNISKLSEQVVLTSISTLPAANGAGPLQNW
Description: IPOne (IP-1 accumulation) assay in CHO cells expressing human OX2R. The format is cell-based. Conditions: for EC50: CHO cells expressing human OX2R, IP-One assay, 2 h incubation, four parameter logistic fit, read-out: OX2R Potency, EC50; for % of maximum agonist effect (relative to Orexin A): percent effect vs mean max effect of a reference compound at 1 uM (100% activity vs Orexin A), human OX2R. In outline:
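CHO cells stably expressing human OX2R, grown in Iscove's modified DMEM with 10% FBS; agonist-driven IP-1 accumulation via the Gαq pathway measured by HTRF (D2/AB-cryptate detection after lysis). EC50 taken as the inflection point of a four-parameter logistic fit.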

Usually EC50 stands for the concentration needed to bring the measured effect to its halfway point. In the case of `CCC(NC(=O)N(CC)[C@@H](c1cc(-c2cn3cc(C)nc3c(OC)n2)c(OC)cn1)C(F)(F)F)C1CC1C(F)(F)F` (stereo partly drawn) [Example 6-6, 1-ethyl-1-((S)-2,2,2-trifluoro-1-(5-methoxy-4-(8-methoxy-2-methylimidazo[1,2-a]pyrazin-6-yl)pyridin-2-yl)ethyl)-3-(1-(2-(trifluoromethyl)cyclopropyl)propyl)urea], the EC50 is 71.4 nM and the “% of maximum agonist effect (relative to Orexin A)” value is recorded as 101.5%.

For the compound `CCN(C(=O)N[C@@H](CCC(F)F)C1CC1)[C@@H](c1cc(-c2cn3cc(C)nc3c(OC)n2)c(OC)cn1)C(F)(F)F` [Example 6-7, 3-((S)-1-cyclopropyl-4,4-difluorobutyl)-1-ethyl-1-((S)-2,2,2-trifluoro-1-(5-methoxy-4-(8-methoxy-2-methylimidazo[1,2-a]pyrazin-6-yl)pyridin-2-yl)ethyl)urea], the EC50 amounted to 8.5 nM and the “% of maximum agonist effect (relative to Orexin A)” value was found to be 100.9%.

As for `CC[C@H](CCC(F)(F)F)NC(=O)N(CC)[C@H](C)c1cccc(-c2cc(OC(F)F)c3nccn3c2)c1` [Example 7-1, 1-((R)-1-(3-(8-(difluoromethoxy)imidazo[1,2-a]pyridin-6-yl)phenyl)ethyl)-1-ethyl-3-((R)-6,6,6-trifluorohexan-3-yl)urea], the EC50 amounted to 29.3 nM and the “% of maximum agonist effect (relative to Orexin A)” value came out at 96.8%.

In the case of `CCC(CCC(F)(F)F)NC(=O)N(CC)[C@H](C)c1cccc(-c2cn3ccnc3cc2OC)c1` (stereo partly drawn) [Example 7-2, 1-ethyl-1-((R)-1-(3-(7-methoxyimidazo[1,2-a]pyridin-6-yl)phenyl)ethyl)-3-(6,6,6-trifluorohexan-3-yl)urea], the EC50 came out at 396 nM and the “% of maximum agonist effect (relative to Orexin A)” value amounted to 100.4%.

Take `CC[C@H](CCC(F)(F)F)NC(=O)N(CC)[C@H](C)c1cccc(-c2cc(C(F)F)c3nccn3c2)c1` [Example 7-3, 1-((R)-1-(3-(8-(difluoromethyl)imidazo[1,2-a]pyridin-6-yl)phenyl)ethyl)-1-ethyl-3-((R)-6,6,6-trifluorohexan-3-yl)urea]: the EC50 is 491 nM and the “% of maximum agonist effect (relative to Orexin A)” value turned out to be 86.1%.

Regarding `CC[C@H](CCC(F)(F)F)NC(=O)N(CC)[C@H](C)c1cccc(-c2cc(COC)c3nccn3c2)c1` [Example 7-4, 1-ethyl-1-((R)-1-(3-(8-(methoxymethyl)imidazo[1,2-a]pyridin-6-yl)phenyl)ethyl)-3-((R)-6,6,6-trifluorohexan-3-yl)urea], the EC50 stood at 595 nM and the “% of maximum agonist effect (relative to Orexin A)” value came to 97.8%.

For `CC[C@H](CCC(F)(F)F)NC(=O)N(CC)[C@H](C)c1cccc(-c2cc(Cl)n3nccc3c2)c1` [Example 7-5, 1-((R)-1-(3-(7-chloropyrazolo[1,5-a]pyridin-5-yl)phenyl)ethyl)-1-ethyl-3-((R)-6,6,6-trifluorohexan-3-yl)urea], the EC50 turned out to be 851 nM and the “% of maximum agonist effect (relative to Orexin A)” value is recorded as 93.7%.

As for `CCC(CCC(F)(F)F)NC(=O)N(CC)[C@H](C)c1cccc(-c2cn3ccnc3cc2COC)c1` (stereo partly drawn) [Example 7-6, 1-ethyl-1-((R)-1-(3-(7-(methoxymethyl)imidazo[1,2-a]pyridin-6-yl)phenyl)ethyl)-3-(6,6,6-trifluorohexan-3-yl)urea], the EC50 is 1410 nM and the “% of maximum agonist effect (relative to Orexin A)” value came to 100.8%.

For `CC[C@H](CCC(F)(F)F)NC(=O)N(CC)[C@H](C)c1cccc(-c2cn3ccnc3c(SC)n2)c1` [Example 8-1, 1-ethyl-1-((R)-1-(3-(8-(methylthio)imidazo[1,2-a]pyrazin-6-yl)phenyl)ethyl)-3-((R)-6,6,6-trifluorohexan-3-yl)urea], the EC50 was 211 nM and the “% of maximum agonist effect (relative to Orexin A)” value worked out at 96.1%.

For `CCOc1cc(-c2cccc([C@@H](C)N(CC)C(=O)N[C@H](CC)CCC(F)(F)F)c2)cn2ccnc12` [Example 8-2, 1-((R)-1-(3-(8-ethoxyimidazo[1,2-a]pyridin-6-yl)phenyl)ethyl)-1-ethyl-3-((R)-6,6,6-trifluorohexan-3-yl)urea], the EC50 turned out to be 6.5 nM and the “% of maximum agonist effect (relative to Orexin A)” value worked out at 97.7%.

With `CC[C@H](CCC(F)(F)F)NC(=O)N(CC)[C@H](C)c1ccc(OC)c(-c2cc(C)c3nccn3c2)c1` [Example 8-3, 1-ethyl-1-((R)-1-(4-methoxy-3-(8-methylimidazo[1,2-a]pyridin-6-yl)phenyl)ethyl)-3-((R)-6,6,6-trifluorohexan-3-yl)urea], the EC50 was 10.4 nM and the “% of maximum agonist effect (relative to Orexin A)” value came out at 96.6%.

In the case of `CC[C@H](CCC(F)(F)F)NC(=O)N(CC)[C@H](C)c1ccc(OC)c(-c2cc(N)c3nccn3c2)c1` [Example 8-4, 1-((R)-1-(3-(8-aminoimidazo[1,2-a]pyridin-6-yl)-4-methoxyphenyl)ethyl)-1-ethyl-3-((R)-6,6,6-trifluorohexan-3-yl)urea], the EC50 was found to be 25.9 nM and the “% of maximum agonist effect (relative to Orexin A)” value turned out to be 98.7%.

As for `CC[C@H](CCC(F)(F)F)NC(=O)N(CC)[C@H](C)c1ccc(OC)c(-c2cnc3[nH]ccc3c2)c1` [Example 8-5, 1-ethyl-1-((R)-1-(4-methoxy-3-(1H-pyrrolo[2,3-b]pyridin-5-yl)phenyl)ethyl)-3-((R)-6,6,6-trifluorohexan-3-yl)urea], the EC50 was determined as 47.8 nM and the “% of maximum agonist effect (relative to Orexin A)” value was 96.1%.

On to `CCC(CCC(F)(F)F)NC(=O)N(CC)[C@H](C)c1cccc(-c2cnc3nccn3c2)c1` (stereo partly drawn) [Example 8-7, 1-ethyl-1-((R)-1-(3-(imidazo[1,2-a]pyrimidin-6-yl)phenyl)ethyl)-3-(6,6,6-trifluorohexan-3-yl)urea], for which the EC50 turned out to be 180 nM and the “% of maximum agonist effect (relative to Orexin A)” value was 99.3%.

As for `CCC(CCC(F)(F)F)NC(=O)N(CC)[C@H](C)c1cccc(-c2cn3ccnc3cc2C)c1` (stereo partly drawn) [Example 8-8, 1-ethyl-1-((R)-1-(3-(7-methylimidazo[1,2-a]pyridin-6-yl)phenyl)ethyl)-3-(6,6,6-trifluorohexan-3-yl)urea], the EC50 was 248 nM and the “% of maximum agonist effect (relative to Orexin A)” value was determined as 102.1%.

In the case of `CCN(C(=O)N[C@@H](CCC(F)(F)F)C(F)(F)F)[C@H](C)c1cccc(-c2cc(OC)c3ncc(Cl)n3c2)c1` [Example 8-9, 1-((R)-1-(3-(3-chloro-8-methoxyimidazo[1,2-a]pyridin-6-yl)phenyl)ethyl)-1-ethyl-3-((S)-1,1,1,5,5,5-hexafluoropentan-2-yl)urea], the EC50 worked out at 0.7 nM and the “% of maximum agonist effect (relative to Orexin A)” value is on record as 99.7%.

For the compound `CCN(C(=O)N[C@@H](CCC(F)(F)F)C(F)(F)F)[C@H](C)c1cccc(-c2cc(OC)c3nc(Cl)cn3c2)c1` [Example 8-10, 1-((R)-1-(3-(2-chloro-8-methoxyimidazo[1,2-a]pyridin-6-yl)phenyl)ethyl)-1-ethyl-3-((S)-1,1,1,5,5,5-hexafluoropentan-2-yl)urea], the EC50 was found to be 1.5 nM and the “% of maximum agonist effect (relative to Orexin A)” value amounted to 99.6%.

With `CCN(C(=O)N[C@@H](CCC(F)(F)F)C(F)(F)F)[C@H](C)c1cccc(-c2cc(OC)c3ncnn3c2)c1` [Example 8-11, 1-ethyl-3-((S)-1,1,1,5,5,5-hexafluoropentan-2-yl)-1-((R)-1-(3-(8-methoxy-[1,2,4]triazolo[1,5-a]pyridin-6-yl)phenyl)ethyl)urea], the EC50 turned out to be 2 nM and the “% of maximum agonist effect (relative to Orexin A)” value is 95.4%.

As to `CCN(C(=O)N[C@@H](CCC(F)(F)F)C(F)(F)F)[C@H](C)c1cccc(-c2ccc3ncc(N)n3c2)c1` [Example 8-12, 1-((R)-1-(3-(3-aminoimidazo[1,2-a]pyridin-6-yl)phenyl)ethyl)-1-ethyl-3-((S)-1,1,1,5,5,5-hexafluoropentan-2-yl)urea], the EC50 turned out to be 17.4 nM and the “% of maximum agonist effect (relative to Orexin A)” value was determined as 96.7%.

On to `CCN(C(=O)N[C@@H](CCC(F)(F)F)C(F)(F)F)[C@H](C)c1cccc(-c2cc(OC)c3ncc(Cl)n3c2Cl)c1` [Example 8-14, 1-((R)-1-(3-(3,5-dichloro-8-methoxyimidazo[1,2-a]pyridin-6-yl)phenyl)ethyl)-1-ethyl-3-((S)-1,1,1,5,5,5-hexafluoropentan-2-yl)urea], for which the EC50 came to 109 nM and the “% of maximum agonist effect (relative to Orexin A)” value was determined as 100.1%.

For `CC[C@H](CCC(F)(F)F)NC(=O)N(CC)[C@H](C)c1cccc(-c2cn3ccnc3cc2Cl)c1` [Example 8-15, 1-((R)-1-(3-(7-chloroimidazo[1,2-a]pyridin-6-yl)phenyl)ethyl)-1-ethyl-3-((R)-6,6,6-trifluorohexan-3-yl)urea], the EC50 was 188 nM and the “% of maximum agonist effect (relative to Orexin A)” value came out at 94.1%.

Consider `CCN(C(=O)N[C@@H](CCC(F)(F)F)C(F)(F)F)[C@@H](c1cc(-c2cc(OC)c3nccn3c2)c(OC)cn1)C(F)(F)F` [Example 9-1, 1-ethyl-3-((S)-1,1,1,5,5,5-hexafluoropentan-2-yl)-1-((S)-2,2,2-trifluoro-1-(5-methoxy-4-(8-methoxyimidazo[1,2-a]pyridin-6-yl)pyridin-2-yl)ethyl)urea], for which the EC50 was 0.9 nM and the “% of maximum agonist effect (relative to Orexin A)” value was determined as 99.7%.
